Results reported in article PMC3634016, “The Calmodulin-Binding, Short Linear Motif, NSCaTE Is Conserved in L-Type Channel Ancestors of Vertebrate Cav1.2 and Cav1.3 Channels” (PLoS ONE, 2013).

Molecular target: T1, Ca^2+-CaM (wild type rat calmodulin) (Rattus norvegicus, UniProt P0DP29)
T1 construct: made in house
Assay: Isothermal titration calorimetry, peptide into Ca2+-CaM
Format: binding
Settings: peptide titrated into Ca2+-CaM alone; 25 mM Tris-Cl pH 7.5, 75 mM NaCl, 0.5 mM CaCl2; 25°C; one-set-of-sites model; SEM printed separately in figure
Protocol: All peptides were resuspended in mili-Q deionized water to 1 mM stocks and stored at −80°C in small aliquots.
All ITC recordings were performed on a Microcal ITC200 from Microcal (Northampton, MA) at 25°C. In all experiments the buffer used was 25 mM Tris-Cl pH 7.5, 75 mM NaCl and 0.5 mM CaCl2 and was identical between cell and syringe. […] Data analysis was performed using Origin ITC200 Origin70 module with pre-loaded fitting equations for one- and two-sites models.

CC[C@H](C)[C@H](NC(=O)[C@H](C)NC(=O)[C@H](C)NC(=O)[C@H](CCC(N)=O)NC(=O)[C@H](Cc1c[nH]c2ccccc12)NC(=O)[C@@H](N)CO)C(=O)N[C@@H](CC(=O)O)C(=O)N[C@@H](C)C(=O)N[C@@H](C)C(=O)N[C@@H](CCCNC(=N)N)C(=O)N[C@@H](CCC(N)=O)C(=O)N[C@@H](C)C(=O)N[C@@H](CCCCN)C(=O)N[C@@H](CC(C)C)C(=O)N[C@@H](CCSC)C(=O)NCC(=O)N[C@@H](CO)C(=O)O [NSCaTECav1.2]
Kd: 830 nM
